Values of other authors in publication PMC4549746, “Zearalenone in the Intestinal Tissues of Immature Gilts Exposed per os to Mycotoxins” (Toxins, 2015).

Parameters: method as in PMID 15972077
Details: animal feed naturally contaminated with ZEN and α-ZEL; cited from earlier work

With `C[C@H]1CCCC(=O)CCC/C=C/c2cc(O)cc(O)c2C(=O)O1` [ZEN, zearalenone] as the compound, how does the “absorbed from the duodenum” value read?
The value was 65%.
